Experimental data from ChEMBL document CHEMBL3727361, “Nitrogen bicyclic compounds as inhibitors for Scyl1 and Grk5” (2014).

test system: Beta-TC6; experiment: Increase in insulin release in mouse BetaTC6 cells assessed as relative insulin release activity at 10 uM incubated for 2 to 4 hrs by FRET based HTRF assay relative to sunitinib; format: functional

| SMILES | Activity |
| --- | --- |
| O=C(O)CCc1ccc(-c2cnc3cnc(-c4ccccc4CO)cn23)cc1 | 20% |
| OCc1cccc(-c2cnc3cnc(-c4cccs4)cn23)c1 | 20% |
| CN(C)CCCNC(=O)c1ccc(-c2cn3c(-c4ccc5c(ccn5C)c4)cnc3cn2)cc1 | 20% |
| CN(C)c1ccc(-c2cnc3cnc(-c4ccc(C(=O)NCCO)cc4)cn23)cc1 | 50% |
| O=C(NC1CC1)c1ccc(-c2cn3c(-c4ccc(O)cc4)cnc3cn2)cc1 | 20% |
| O=C(NC1CC1)c1ccc(-c2cn3c(-c4ccccc4)cnc3cn2)cc1 | 20% |
| Cc1ccccc1-c1cnc2cnc(-c3cccc(F)c3)cn12 | 10% |
| COc1cc(-c2cnc3cnc(-c4ccc(N)nc4)cn23)ccc1O | 20% |
| COc1ccc(-c2cnc3cnc(-c4ccc(CO)cc4)cn23)cc1 | 50% |
| FC(F)(F)Oc1cccc(-c2nnc3ccc(-c4cccs4)cn23)c1 | 50% |
| COc1cc(OC)cc(-c2cn3c(-c4ccsc4)cnc3cn2)c1 | 20% |
| Cc1ccccc1-c1cn2c(-c3ccc(CCC(=O)O)cc3)cnc2cn1 | 20% |
| Cn1ccc2cc(-c3cnc4cnc(-c5cccc(C(N)=O)c5)cn34)ccc21 | 20% |
| Nc1cccc(-c2cn3c(-c4cccc(F)c4)cnc3cn2)c1 | 20% |
| COc1cc(-c2cnc3cnc(-c4ccc(N5CCN(C)CC5)nc4)cn23)ccc1O | 20% |
| Clc1cccc(-c2nnc3ccc(-c4cncc5ccccc45)cn23)c1 | 50% |
| CN(C)c1ccc(-c2cnc3cnc(-c4ccc(C(=O)N5CCOCC5)cc4)cn23)cc1 | 20% |
| Oc1cccc(-c2cnc3cnc(-c4ccc(Cl)cc4)cn23)c1 | 20% |
| Clc1cccc(-c2nnc3ccc(-c4ccncc4)cn23)c1 | 50% |
| CC(=O)Nc1ccc(-c2cnc3ccc(-c4ccc5c(c4)OCO5)nn23)cc1 | >=100% |
| COc1cc(-c2ccc3ncc(-c4ccc(F)c(Cl)c4)n3n2)cc(OC)c1OC | 10% |
| COc1ccc(-c2cnc3cnc(-c4cccc(C(N)=O)c4)cn23)cn1 | 20% |

| SMILES | Activity |
| --- | --- |
| CC(=O)c1cccc(-c2cnc3cnc(-c4ccc(C(=O)NCCN(C)C)cc4)cn23)c1 | 20% |
| NC(=O)c1ccc(-c2cnc3ccc(Cc4ccc(F)c(F)c4)nn23)cc1 | 20% |
| CN1CCN(C(=O)c2cccc(-c3cnc4cnc(-c5ccc(OC(F)(F)F)cc5)cn34)c2)CC1 | 20% |
| CS(=O)(=O)Nc1cccc(-c2ccc3nnc(-c4ccccc4)n3c2)c1 | 50% |
| CC(=O)Nc1cccc(-c2ccc3nnc(-c4ccccc4)n3c2)c1 | 50% |
| NC(=O)c1cccc(-c2ccc3nnc(-c4cscn4)n3c2)c1 | 20% |
| O=S1(=O)CCN(CC#Cc2ccc3nnc(-c4cscn4)n3c2)CC1 | 10% |
| OCc1ccc(-c2cn3c(-c4cccs4)cnc3cn2)cc1 | 20% |
| CN(C)c1ccc(-c2cnc3cnc(-c4cccc(NS(C)(=O)=O)c4)cn23)cc1 | 20% |
| O=C(NC1CC1)c1ccc(-c2cnc3cccnn23)cc1 | 10% |
| Nc1ccc(-c2cn3c(-c4cccs4)cnc3cn2)cn1 | 20% |
| COCCNc1ccc2ncc(-c3ccc(C(=O)Nc4ccc(OC)cc4)cc3)n2n1 | 20% |
| CC(C)Oc1cccc(-c2cn3c(-c4cccc(CO)c4)cnc3cn2)c1 | 20% |
| Nc1cccc(-c2cnc3ccc(NC4CCOCC4)nn23)c1 | 20% |
| CCCNc1ccc2ncc(-c3ccc(C(=O)O)cc3)n2n1 | 10% |
| CC(=O)c1cccc(-c2cn3c(NC(=O)CC4CC4)cnc3cn2)c1 | 20% |
| N#Cc1ccc(-c2cnc3cnc(-c4cccs4)cn23)cc1 | 20% |
| CC(=O)c1cccc(-c2cnc3cnc(-c4cccs4)cn23)c1 | 50% |
| FC(F)(F)c1cccc(-c2cnc3ccc(C4CC4)nn23)c1 | 10% |
| c1cncc(-c2cnc3cnc(-c4ccc(N5CCOCC5)cc4)cn23)c1 | 20% |
| CNc1ccc2ncc(-c3ccccc3O)n2n1 | 20% |
